According to patent US20100286092A1, “BETA-LACTAMASE INHIBITORS” (priority 2007, published 2010):

What was measured:
Details in all cases: in the presence of a fixed amount (8 μg/mL) of Ceftazidime; CAMHB, 16-20 hours at 37° C.
[1] = test system: E. cloacae expressing the Class C P99+; type: cell-based
From the text: (§1) To determine the ability of test compounds to potentiate the inhibition of the growth of bacterial strains producing beta-lactamase enzymes, classic cell based screening assays were employed. Four bacteria strains producing beta-lactamase enzymes were used: K. pneumoniae expressing the Class A Extended Spectrum Beta-Lactamase (ESBL) CTX-M-15, E. coli expressing the Class A ESBL SHV-5, E. cloacae expressing the Class C P99+, and K. pneumoniae expressing the Class A carbapenemase KPC-2. In order to evaluate the ability of test compounds to inhibit beta-lactamase activity, Applicants used a modification of the broth microdilution assay. The assay was conducted in Cation Adjusted Mueller Hinton Broth (CAMHB, BD #212322, BD Diagnostic Systems, Sparks, Md.). Bacteria strains were grown for 3-5 hours in CAMBH broth. All four strains were grown in presence of 50 μg/mL ampicillin to ensure resistance is maintained. In the meantime, test compounds were diluted in DMSO to a 0.1 mg/mL stock. The compounds were added to a microtiter plate and were diluted in 2-fold serial dilutions in CAMHB in a final concentration range of 8 μg/mL to 0.015 μg/ml. An overlay of CAMHB containing a cephalosporin was added to the compounds at a final static concentration of 8 μg/ml. […] Each of these compound plates are made in quadruplicate, one for each bacteria strain. In addition to the titration of test compounds the MICs of a panel of cephalosporins is also tested to ensure the strains are behaving consistently from test to test. Once the test compound and cephalosporin are added the plates can be inoculated. Inocula are conducted according to CLSI broth microdilution method. After inoculation the plates are incubated for 16-20 hours at 37° C. then the Minimal Inhibitory Concentration (MIC) of the test compound is determined visually.
(§2) Using the methodology described above, examples of the current invention were evaluated for their ability to inhibit the growth of β-lactamase producing bacteria in the presence of a β-lactam antibiotic. […] NT=Not Tested.

[2] = test system: K. pneumoniae expressing the Class A Extended Spectrum Beta-Lactamase (ESBL) CTX-M-15; type: cell-based
From the text: as §1, §2

[3] = test system: K. pneumoniae expressing the Class A carbapenemase KPC-2
From the text: as §1, §2

[4] = test system: E. coli expressing the Class A ESBL SHV-5; type: cell-based
From the text: as §1, §2

Row | SMILES | MIC of example compound, E. cloacae P99 AmpC + 8 μg/mL CAZ [1] | MIC of example compound, K. pneumoniae CTX-M-15 + 8 μg/mL CAZ [2] | MIC of example compound, K. pneumoniae KPC-2 + 8 μg/mL CAZ [3] | MIC of example compound, E. coli SHV-5 + 8 μg/mL CAZ [4]
1 | O=C(Cc1cccs1)N[C@@H](Cc1ccc(C(=O)O)cc1O)B(O)O [Example 2, (1R)-1-(2-thiophene-2-yl-acetylamino)-2-(2-hydroxy-4-carboxyphenyl)ethyl-1-boronic acid] | A (A represents an MIC>8 μg/mL) | – | – | –
2 | O=C(CCC(=O)c1cccs1)N[C@@H](Cc1cccc(C(=O)O)c1O)B(O)O [Example 5, (1R)-1-(4-oxo-4-thiophen-2-yl-butyrylamino)-2-(2-hydroxy-3-carboxyphenyl)ethyl-1-boronic acid] | C (C represents an MIC of <1 μg/mL) | C (C represents an MIC of <1 μg/mL) | C (C represents an MIC of <1 μg/mL) | –
3 | O=C(N[C@@H](Cc1cccc(C(=O)O)c1O)B(O)O)c1cccs1 [Example 11, (1R)-1-(thiophene-2-carbonyl-amino)-2-(2-hydroxy-3-carboxyphenyl)ethyl-1-boronic acid] | C (C represents an MIC of <1 μg/mL) | C (C represents an MIC of <1 μg/mL) | C (C represents an MIC of <1 μg/mL) | –
4 | O=C(N[C@@H](Cc1cccc(C(=O)O)c1O)B(O)O)c1ccccc1 [Example 13, (1R)-1-Benzoylamino-1-(3-carboxy-2-hydroxy)benzyl-methylboronic acid] | C (C represents an MIC of <1 μg/mL) | C (C represents an MIC of <1 μg/mL) | C (C represents an MIC of <1 μg/mL) | –
5 | CC(C)C(=O)N[C@@H](Cc1cccc(C(=O)O)c1O)B(O)O [Example 14, (1R)-1-Isobutyrylamino-1-(3-carboxy-2-hydroxy)benzyl-methylboronic acid] | C (C represents an MIC of <1 μg/mL) | C (C represents an MIC of <1 μg/mL) | C (C represents an MIC of <1 μg/mL) | –
6 | O=C(O)c1cccc(C[C@H](NC(=O)C2CCCC2)B(O)O)c1O [Example 15, (1R)-1-Cyclopentanecarbonylamino-(3-carboxy-2-hydroxy)benzyl-methylboronic acid] | C (C represents an MIC of <1 μg/mL) | C (C represents an MIC of <1 μg/mL) | C (C represents an MIC of <1 μg/mL) | –
7 | CCC(=O)N[C@@H](Cc1cccc(C(=O)O)c1O)B(O)O [Example 16, (1R)-1-(propionylamino)-2-(2-hydroxy-3-carboxyphenyl)ethyl-1-boronic acid] | C (C represents an MIC of <1 μg/mL) | C (C represents an MIC of <1 μg/mL) | C (C represents an MIC of <1 μg/mL) | –
8 | O=C(O)c1cccc(C[C@H](NC(=O)C2CC2)B(O)O)c1O [Example 20, (1R)-1-Cyclopropanecarbonyl-amino-1-(3-carboxy-2-hydroxy)benzyl-methylboronic acid] | C (C represents an MIC of <1 μg/mL) | C (C represents an MIC of <1 μg/mL) | C (C represents an MIC of <1 μg/mL) | –
9 | CCCCCCC(=O)N[C@@H](Cc1cccc(C(=O)O)c1O)B(O)O [Example 24, (1R)-1-(heptanoylamino)-2-(2-hydroxy-3-carboxyphenyl)ethyl-1-boronic acid] | – | C (C represents an MIC of <1 μg/mL) | C (C represents an MIC of <1 μg/mL) | –
10 | CC(C)(C)CC(=O)N[C@@H](Cc1cccc(C(=O)O)c1O)B(O)O [Example 25, (1R)-1-(3,3-Dimethyl-butyrylamino)-(3-carboxy-2-hydroxy)benzyl-methylboronic acid] | – | C (C represents an MIC of <1 μg/mL) | C (C represents an MIC of <1 μg/mL) | –
11 | O=C(N[C@@H](Cc1cccc(C(=O)O)c1O)B(O)O)c1ccc(F)cc1 [Example 26, (1R)-1-(4-Fluorobenzoylamino)-(3-carboxy-2-hydroxy)benzyl-methylboronic acid] | C (C represents an MIC of <1 μg/mL) | C (C represents an MIC of <1 μg/mL) | C (C represents an MIC of <1 μg/mL) | –
12 | O=C(N[C@@H](Cc1cccc(C(=O)O)c1O)B(O)O)c1cccc(O)c1 [Example 28, (1R)-1-(3-hydroxybenzoylamino)-2-(2-hydroxy-3-carboxyphenyl)ethyl-1-boronic acid] | – | C (C represents an MIC of <1 μg/mL) | C (C represents an MIC of <1 μg/mL) | –
13 | O=C(N[C@@H](Cc1cccc(C(=O)O)c1O)B(O)O)c1ccc(Cl)nc1 [Example 31, (1R)-1-(6-Chloro-pyridine-3-carbonyl)-amino-1-(3-carboxy-2-hydroxy)benzyl-methylboronic acid] | – | C (C represents an MIC of <1 μg/mL) | C (C represents an MIC of <1 μg/mL) | –
14 | COc1ccccc1C(=O)N[C@@H](Cc1cccc(C(=O)O)c1O)B(O)O [Example 34, (1R)-1-(2-methoxybenzoylamino)-2-(2-hydroxy-3-carboxyphenyl)ethyl-1-boronic acid] | – | – | C (C represents an MIC of <1 μg/mL) | A (A represents an MIC>8 μg/mL)
15 | O=C(N[C@@H](Cc1cccc(C(=O)O)c1O)B(O)O)c1ccc(O)cc1 [Example 36, (1R)-1-(4-Hydroxybenzoyl)-amino-1-(3-carboxy-2-hydroxy)benzyl-methylboronic acid] | C (C represents an MIC of <1 μg/mL) | C (C represents an MIC of <1 μg/mL) | C (C represents an MIC of <1 μg/mL) | –
16 | CC(=O)NCC(=O)N[C@@H](Cc1cccc(C(=O)O)c1O)B(O)O [Example 37, (1R)-1-(2-acetamidoacetylamino)-2-(2-hydroxy-3-carboxyphenyl)ethyl-1-boronic acid] | C (C represents an MIC of <1 μg/mL) | C (C represents an MIC of <1 μg/mL) | C (C represents an MIC of <1 μg/mL) | –
17 | O=C(Cn1cccn1)N[C@@H](Cc1cccc(C(=O)O)c1O)B(O)O [Example 40, (1R)-1-(Pyrazol-1-yl-acetylamino)-2-(2-hydroxy-3-carboxyphenyl)ethyl-1-boronic acid] | – | C (C represents an MIC of <1 μg/mL) | C (C represents an MIC of <1 μg/mL) | –
18 | NCc1cccc(C(=O)N[C@@H](Cc2cccc(C(=O)O)c2O)B(O)O)c1.O=CO [Example 42, (1R)-1-(3-aminomethyl)-benzoylamino-1-(3-carboxy-2-hydroxy)benzyl-methyl boronic acid formate] | C (C represents an MIC of <1 μg/mL) | – | C (C represents an MIC of <1 μg/mL) | –
19 | Cn1nc(-c2ccccc2)cc1C(=O)N[C@@H](Cc1cccc(C(=O)O)c1O)B(O)O [Example 44, (1R)-1-(1-methyl-3-phenyl-1H-pyrazole-5-carbonyl-amino)-2-(2-hydroxy-3-carboxyphenyl)ethyl-1-boronic acid] | – | A (A represents an MIC>8 μg/mL) | – | A (A represents an MIC>8 μg/mL)
20 | O=C(N[C@@H](Cc1cccc(C(=O)O)c1O)B(O)O)c1ccno1 [Example 46, (1R)-1-(isoxazole-5-carbonyl-amino)-2-(2-hydroxy-3-carboxyphenyl)ethyl-1-boronic acid] | C (C represents an MIC of <1 μg/mL) | C (C represents an MIC of <1 μg/mL) | C (C represents an MIC of <1 μg/mL) | –
21 | O=C(N[C@@H](Cc1cccc(C(=O)O)c1O)B(O)O)c1ccc(N2CCOCC2)nc1 [Example 48, (1R)-1-(6-morpholin-4-yl-pyridine-3-carbonyl)-amino-1-(3-carboxy-2-hydroxy)benzyl-methylboronic acid] | – | – | C (C represents an MIC of <1 μg/mL) | A (A represents an MIC>8 μg/mL)
